Assay results as given in article PMC12184311 (2025).

Legend:
[1] = test system: mm3WJ (mismatched 3WJ) (DNA, junction) CGGAACGGCACTCG/CGAGTGCAGCGTGG/CCACGCACGTTCCG; assay: PAGE
[2] = test system: one-base-bulged 3WJ (DNA, junction) CGGAACGAGCACTCG/CGAGTGCAGCGTGG/CCACGCTCGTTCCG; assay: PAGE
[3] = test system: two-base-bulged 3WJ (DNA, junction) CGGAACGAAGCACTCG/CGAGTGCAGCGTGG/CCACGCTCGTTCCG; assay: PAGE
[4] = test system: 3WJ (DNA, junction) CGGAACGGCACTCG/CGAGTGCAGCGTGG/CCACGCTCGTTCCG; assay: UV melting, 260 nm; settings: Na+ (10 mM Na cacodylate, 50 mM NaOAc); 1 equivalent Pt-BIMA
[5] = test system: 4WJ-FAM1 (DNA, junction) GCCTAGCATGATACTGCTACCG/CGGTAGCAGTACCGTTGGTGGC/GCCACCAACGGCGTCAACTGCC/GGCAGTTGACGTCATGCTAGGC; assay: FRET, FAM emission; settings: Na+ 50 mM (NaOAc); 10 mM HEPES; 5 µM DNA, 1 equivalent Pt-BIMA; FAM emission up about 3.5-fold
[6] = test system: Y fork (DNA, junction) CGCACGTACGGAACGGCACTCGCTTGCTCG/CGAGCAAGCGAGTGCAGCGTGGATACATGC; assay: UV melting, 260 nm; settings: Na+ (10 mM Na cacodylate, 50 mM NaOAc); 1 equivalent Pt-BIMA
[7] = test system: FAM-labelled 3WJ-18 (DNA, junction) GTGGCGAGAGCGACGATC/GATCGTCGCAGAGTTGAC/GTCAACTCTTCTCGCCAC; assay: microscale thermophoresis; settings: Na+ 50 mM (NaOAc); 10 mM HEPES, 0.1% Tween, room temperature; error exceeds value
[8] = test system: FAM-labelled 4WJ-22 (FAM-4WJ) (DNA, junction) GCCTAGCATGATACTGCTACCG/CGGTAGCAGTACCGTTGGTGGC/GCCACCAACGGCGTCAACTGCC/GGCAGTTGACGTCATGCTAGGC; assay: microscale thermophoresis; settings: Na+ 50 mM (NaOAc); 10 mM HEPES, 0.1% Tween, room temperature; 20 nM DNA
[9] = test system: 4WJ-22 (DNA, junction) GCCTAGCATGATACTGCTACCG/CGGTAGCAGTACCGTTGGTGGC/GCCACCAACGGCGTCAACTGCC/GGCAGTTGACGTCATGCTAGGC; assay: UV melting, 260 nm; settings: Na+ (10 mM Na cacodylate, 50 mM NaOAc); 1 equivalent Pt-BIMA, 0.05% DMSO; biphasic
[10] = test system: FAM-labelled DS-21 (dsDNA) (DNA, duplex) CCTTCACGCGAACGTAATCCT/AGGATTACGTTCGCGTGAAGG; assay: microscale thermophoresis; settings: Na+ 50 mM (NaOAc); 10 mM HEPES, 0.1% Tween, room temperature; tested 1.5 nM to 50 µM Pt-BIMA
[11] = test system: DS-21 (dsDNA) (DNA, duplex) CCTTCACGCGAACGTAATCCT/AGGATTACGTTCGCGTGAAGG; assay: UV melting, 260 nm; settings: Na+ (10 mM Na cacodylate, 50 mM NaOAc); 1 equivalent Pt-BIMA
[12] = test system: 4WJ-22 (DNA, junction) GCCTAGCATGATACTGCTACCG/CGGTAGCAGTACCGTTGGTGGC/GCCACCAACGGCGTCAACTGCC/GGCAGTTGACGTCATGCTAGGC; assay: MST competition, unlabelled DNA titrated; settings: Na+ 50 mM (NaOAc); IC50 of competitor DNA, not of compound; 20 nM FAM-4WJ-22, 80 nM Pt-BIMA; 10 mM HEPES, 0.1% Tween-20
[13] = test system: DS-21 (dsDNA) (DNA, duplex) CCTTCACGCGAACGTAATCCT/AGGATTACGTTCGCGTGAAGG; assay: MST competition, unlabelled DNA titrated; settings: Na+ 50 mM (NaOAc); IC50 of competitor DNA, not of compound; 20 nM FAM-4WJ-22, 80 nM Pt-BIMA; 10 mM HEPES, 0.1% Tween-20
[14] = test system: 4WJ-22 (DNA, junction) GCCTAGCATGATACTGCTACCG/CGGTAGCAGTACCGTTGGTGGC/GCCACCAACGGCGTCAACTGCC/GGCAGTTGACGTCATGCTAGGC; assay: PAGE gel shift; settings: Mg2+ 10 mM (MgCl2); band widens, no distinct shift

`[Pd+2].[Pd+2].c1ccc2c(c1)ncn2Cc1c2ccccc2c(Cn2cnc3ccccc32)c2ccccc12.c1ccc2c(c1)ncn2Cc1c2ccccc2c(Cn2cnc3ccccc32)c2ccccc12.c1ccc2c(c1)ncn2Cc1c2ccccc2c(Cn2cnc3ccccc32)c2ccccc12.c1ccc2c(c1)ncn2Cc1c2ccccc2c(Cn2cnc3ccccc32)c2ccccc12` was tested, and the binding [1] was “yes”, the binding [2] was “yes” and the binding [3] was “yes”.

For `[Pt+2].[Pt+2].c1ccc2c(c1)ncn2Cc1c2ccccc2c(Cn2cnc3ccccc32)c2ccccc12.c1ccc2c(c1)ncn2Cc1c2ccccc2c(Cn2cnc3ccccc32)c2ccccc12.c1ccc2c(c1)ncn2Cc1c2ccccc2c(Cn2cnc3ccccc32)c2ccccc12.c1ccc2c(c1)ncn2Cc1c2ccccc2c(Cn2cnc3ccccc32)c2ccccc12`, the ΔTm [4] was 21.1 ± 0.1 °C, the binding [5] was “yes” and the binding [1] was “yes”. For the same compound, the ΔTm [6] was 5.4 ± 1.1 °C, the Kd [7] was 1.90 ± 2.27 × 10^-6 M and the Kd [8] was 8.27 ± 1.11 x 10^-8 M. For the same compound, the ΔTm [9] was 11.6 ± 0.6 °C, the binding [10] was “no” and the binding [2] was “yes”. The binding [3] was “yes”, the ΔTm [11] was 0.7 ± 0.9 °C and the IC50 [12] was 2.88 ± 0.42 x 10^-8 M. The IC50 [13] was over 25 µM and the binding [14] was “weak”.
